By TGI is commonly meant the concentration giving total growth inhibition. Lower therefore signals greater sensitivity of the cells.

This passage reports TGI results from PubChem BioAssay (NCI).

Some test systems named below: 786-0 renal; A549 NSCLC; COLO 205 colon; HCT-116 colon; HS 578T breast; NCI-H460 lung; SF-295 CNS; U251 CNS; UACC-62 melanoma; UO-31 renal.
Common to all, as to assay: DTP human tumour cell line panel, 48 h

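Protocol summary: plate cells (96-well), add compound at 5 concentrations, incubate 48 h, interpolate endpoints linearly. The concentration for full growth arrest is given as TGI.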 Where a SMILES comes first, the peptide text is derived from it. [ ]: non-standard residue; d: D form. The star is where a group is joined. Phe(4-NO2) = N[CH](Cc1ccc([N+](=O)[O-])cc1)C(=O)O; Boc = CC(C)(C)OC(=O)*; OtBu = CC(C)(C)O* A value given as a limit tells only on which side of the number the result lay.

Take `CN(Cc1nc2c(N)nc(N)nc2nc1N)c1ccc(C(=O)NC(CCC(=O)O)C(=O)O)cc1` (stereo not drawn): the concentration for total growth inhibition (TGI) in the test on 786-0 renal, in the test with A549 NSCLC, in the test with COLO 205 colon, in the test with HCT-116 colon, in the test on HS 578T breast and with NCI-H460 lung was above 100 µM each time. For the same compound, the TGI in the test with SF-295 CNS, in the test on U251 CNS, in the test with UACC-62 melanoma and in the test with UO-31 renal was above 100 µM throughout.

Take `COC(=O)C(Cc1ccc([N+](=O)[O-])cc1)NC(=O)C(CC(=O)OC(C)(C)C)NC(=O)OC(C)(C)C` (stereo not drawn) (Boc-Asp(OtBu)-[Phe(4-NO2)]-OMe; configuration not given here): the TGI with 786-0 renal was above 100 µM; with A549 NSCLC, above 100 µM; in the test with COLO 205 colon it was above 100 µM; in the test with HCT-116 colon it was above 100 µM; in the test on HS 578T breast, 40.6 µM; in the test on NCI-H460 lung, above 100 µM. The concentration for total growth inhibition (TGI) in the test with SF-295 CNS was above 100 µM; with U251 CNS, above 100 µM; in the test on UACC-62 melanoma, above 100 µM; with UO-31 renal, 29.6 µM.

For the compound `O=C(O)c1ccc(Nc2cnc3ccc(C(F)(F)F)cc3n2)cc1`, the TGI is above 100 µM in the test on 786-0 renal; 30.8 µM in the test on A549 NSCLC; 32.5 µM in the test on COLO 205 colon; 37.6 µM in the test with HCT-116 colon; 40 µM with HS 578T breast; 87.9 µM in the test on NCI-H460 lung. Also, the TGI with SF-295 CNS was 45.3 µM; in the test on U251 CNS, 59.2 µM; with UACC-62 melanoma, 29.2 µM; in the test with UO-31 renal, 27.5 µM.

For `N#Cc1nnc2c3c(-c4ccc(Cl)cc4)c(C#N)c(=O)[nH]c3nn2c1N`, the TGI was 18.2 µM in the test with 786-0 renal; above 59.9 µM in the test on A549 NSCLC; 28.4 µM in the test on COLO 205 colon; 15.9 µM in the test with HCT-116 colon; 10.8 µM with HS 578T breast; 52.6 µM in the test on NCI-H460 lung. Moreover, the TGI came out at 23.9 µM with SF-295 CNS, 10.7 µM in the test with U251 CNS, 4.44 µM in the test with UACC-62 melanoma and 20.7 µM with UO-31 renal.

With `C/C=C\C(CC(=O)O)CC(=O)NCCC1CN(S(=O)(=O)C(F)(F)F)c2ccccc21` (stereo not drawn), the TGI in the test on 786-0 renal, with A549 NSCLC, with COLO 205 colon, with HCT-116 colon, in the test on HS 578T breast and with NCI-H460 lung was above 100 µM each time. The TGI with SF-295 CNS, in the test on U251 CNS, with UACC-62 melanoma and with UO-31 renal was above 100 µM each time.

Turning to `COc1ccc(-c2c(C(C)=O)c(C)n(C3OC(CO)C(O)C(O)C3O)c(=S)c2C#N)cc1` (stereo not drawn), the TGI in the test on A549 NSCLC, with COLO 205 colon, in the test with HCT-116 colon, with HS 578T breast, in the test with NCI-H460 lung and in the test with SF-295 CNS was above 100 µM throughout. Besides, the TGI in the test with U251 CNS, with UACC-62 melanoma and with UO-31 renal was above 100 µM in each case.

Take `OCc1ccccc1OC1OC(CO)C(O)C(O)C1O` (stereo not drawn): the concentration for total growth inhibition (TGI) in the test with 786-0 renal, in the test on A549 NSCLC, with COLO 205 colon, with HCT-116 colon, in the test with HS 578T breast and in the test on NCI-H460 lung was above 100 µM each time. Further, the TGI in the test on SF-295 CNS, in the test on U251 CNS, with UACC-62 melanoma and in the test on UO-31 renal was above 100 µM in each case.

Consider `Cc1ccc(S(=O)(=O)NC(=O)NS(=O)(=O)O)cc1`, for which the total growth inhibition concentration (TGI) in the test on 786-0 renal, in the test on A549 NSCLC, in the test with COLO 205 colon, in the test with HCT-116 colon, in the test with HS 578T breast and in the test with NCI-H460 lung was above 100 µM each time. For the same compound, the total growth inhibition concentration (TGI) with U251 CNS, in the test with UACC-62 melanoma and with UO-31 renal was above 100 µM in each case.

With `O=C(NCCCCl)c1c(O)c2ccccc2[nH]c1=O`, the TGI in the test on 786-0 renal, in the test on A549 NSCLC, in the test with COLO 205 colon, in the test on HCT-116 colon, with HS 578T breast and in the test with NCI-H460 lung was above 100 µM in each case. For the same compound, the TGI in the test with SF-295 CNS is above 82.5 µM; in the test with U251 CNS it was above 100 µM; with UACC-62 melanoma, above 100 µM; in the test with UO-31 renal, above 100 µM.

Take `COc1ccccc1OC/C(N=Cc1ccncc1)=N/NC(=O)c1ccncc1`: the total growth inhibition concentration (TGI) with 786-0 renal, in the test with A549 NSCLC, in the test on COLO 205 colon, in the test with HCT-116 colon, in the test on HS 578T breast and in the test on NCI-H460 lung was above 100 µM throughout. For the same compound, the TGI in the test with SF-295 CNS, in the test on U251 CNS and with UACC-62 melanoma was above 100 µM throughout.

As to `COc1ccc(NC(=O)C2=C(SC)C(=O)N=C2N)cc1`, the total growth inhibition concentration (TGI) with 786-0 renal, in the test with COLO 205 colon, with HCT-116 colon, in the test with HS 578T breast, in the test with NCI-H460 lung and in the test with SF-295 CNS was above 100 µM in each case. The TGI in the test on U251 CNS, with UACC-62 melanoma and in the test on UO-31 renal was above 100 µM throughout.

For the compound `O=C1O/C(=C\c2ccc(O)cc2)C(c2ccc(O)c(Cl)c2)=C1Br`, the total growth inhibition concentration (TGI) worked out at 31.6 µM with 786-0 renal; 33.4 µM in the test on COLO 205 colon; 23.6 µM in the test with HCT-116 colon; 59.1 µM with HS 578T breast; 38.7 µM in the test on NCI-H460 lung; 28.9 µM in the test with SF-295 CNS. Besides, the total growth inhibition concentration (TGI) with U251 CNS came out at 34.5 µM; in the test with UACC-62 melanoma, 28.9 µM; with UO-31 renal, 36.4 µM.

`CC(=O)c1nccc2c1c(C)nc1ccccc12`: the total growth inhibition concentration (TGI) in the test with A549 NSCLC was above 100 µM; with COLO 205 colon, above 100 µM; with HCT-116 colon it was above 100 µM; in the test with HS 578T breast, 96.3 µM; in the test with NCI-H460 lung, above 100 µM; in the test with SF-295 CNS, above 100 µM. In addition, the total growth inhibition concentration (TGI) with U251 CNS, with UACC-62 melanoma and in the test with UO-31 renal was above 100 µM in each case.

For the compound `COC(=O)c1cc2c3c(c(C(C)=O)c(OC)c2[nH]1)NCC3`, the concentration for total growth inhibition (TGI) in the test with 786-0 renal, in the test on COLO 205 colon, in the test with HCT-116 colon, in the test on HS 578T breast, in the test on NCI-H460 lung and in the test on SF-295 CNS was above 50 µM in each case. Besides, the TGI in the test on U251 CNS, in the test on UACC-62 melanoma and with UO-31 renal was above 50 µM each time.
